Data published in PMC13077286, “Potentiation of the antimycobacterial activity of bedaquiline, clofazimine, and doxycycline against Mycobacterium smegmatis by several natural product-based compounds is putatively via efflux inhibition” (Open Research Africa, 2026).
Where a name gives a salt, the structure may show the parent alone. Read-outs that look alike come from different tables or passages of the source.

What was measured:
[1] = tested on: Mycobacterium smegmatis (Msm) strain ATCC 607; assay: Two-dimensional checkerboard assay incorporating resazurin (REMA MIC) against Msm; assay type: cell-based; details: for MIC / MIC99: compound tested singly, read-out: MIC 99 singly; for MIC 99 fold reduction of anti-TB drug BDQ: BDQ in combination with the labelled EI; for MIC 99 fold reduction of anti-TB drug CFZ: CFZ in combination with the labelled EI; for MIC 99 fold reduction of anti-TB drug DOX: DOX in combination with the labelled EI; for FICI: synergy FICI ≤ 0.5
Vero E6 cells = assay: MTT cytotoxicity assay on Vero E6 cells; assay type: cell-based, African green monkey
Description: (§1) To determine the cytotoxicity of the compounds, Vero E6 cells (derived from the African green monkey kidney cells) were used and the MTT assay was performed as described by [Mosmann (1983)]. The Vero E6 cells were sourced from the American Type Culture Collection (ATCC, Manassas, Virginia, USA). The cells were maintained in Eagle’s Minimum Essential Medium (EMEM) supplemented with 10% fetal bovine serum (FBS; […] Panasonic, Japan) until 80% confluency was achieved, after which they were sub-cultured for cytotoxicity evaluation. At 80% confluency, cells were washed with phosphate-buffered saline (PBS; […] Trypsin activity was neutralized by adding supplemented EMEM. Cells were stained with trypan blue (Loba Chemie, India) and counted using a hemocytometer, and the cell suspensions were adjusted with supplemented EMEM to a final density of 1 × 10 ^5 cells/mL. […] After 24 hrs, the culture medium was replaced with fresh treatment medium with dose dilutions. […] After 48 hrs incubation, the media was removed, and the cells were rinsed with PBS (Sigma-Aldrich, USA). Fresh EMEM supplemented with MTT dye (5 mg […]/mL in PBS; Solarbio, China) was added and incubated for 4 hrs. The MTT solution was then discarded, and formazan crystals were completely dissolved with 100 μL of 100% DMSO (Finar Chemicals, India). Absorbance readings were taken at 570 nm using a microplate reader (Thermo Fisher Scientific, USA). All experiments were performed with three technical replicates. Cell viability (%) was determined using the formula: Cell viability(%)=[Absorbance of treated cells/Absorbance of untreated cells]×100 […]

[2] = MTT cytotoxicity assay on Vero E6 cells; assay type: cell-based, African green monkey; details: African green monkey
Description: as §1

[3] = Mycolicibacterium smegmatis, ATCC607, Msm
[4] = Msm, labelled EI in combination with BDQ
[5] = Msm, labelled EI in combination with CFZ
[6] = Msm, labelled EI in combination with DOX
[7] = Vero E6 cells, 48 hrs exposure, MTT, read-out: CC 50

SMILES	FIC (anti-TB drug) ([1]; Msm, in combination with BER)	MIC 99 combination (anti-TB drug) ([1]; Msm, in combination with BER)	MIC 99 combination (anti-TB drug) ([1]; Msm, in combination with LYO)	FIC (anti-TB drug) ([1]; Msm, in combination with LYO-3)	MIC 99 combination (anti-TB drug) ([1]; Msm, in combination with LYO-3)	FIC (anti-TB drug) ([1]; Msm, in combination with PIP)	MIC 99 combination (anti-TB drug) ([1]; Msm, in combination with PIP)	FIC (anti-TB drug) ([1]; Msm, in combination with RES)	MIC 99 combination (anti-TB drug) ([1]; Msm, in combination with RES)	MIC99 [1, 3]	MIC 99 fold reduction of anti-TB drug BDQ ([1]; Msm)	MIC 99 fold reduction of anti-TB drug DOX ([1]; Msm)	MIC 99 combination (EI) ([1]; Msm, in combination with BDQ)	MIC 99 combination (EI) ([1]; Msm, in combination with CFZ)	FIC (EI) ([1]; Msm, in combination with BDQ)	MIC 99 combination (EI) ([1]; Msm, in combination with DOX)	FICI [1, 4]	FICI [1, 5]	FICI [1, 6]	FIC (EI) ([1]; Msm, in combination with CFZ)	further results
COc1nc2ccc(Br)cc2cc1[C@@H](c1ccccc1)[C@@](O)(CCN(C)C)c1cccc2ccccc12 [BDQ, bedaquiline fumarate]	0.102	0.04 µM	0.09 µM	0.05	0.04 µM	1	0.78 µM	0.5	0.39 µM	0.78 µM											MIC ([1]; Msm): 0.39 µM
COC(=O)[C@H]1[C@H]2C[C@@H]3c4[nH]c5cc(OC)ccc5c4CCN3C[C@H]2C[C@@H](OC(=O)c2cc(OC)c(OC)c(OC)c2)[C@@H]1OC [RES, reserpine]										> 2240 µM	2 fold	32 fold	>2239.3 µM	>2239.3 µM							MIC 99 fold reduction of anti-TB drug CFZ ([1]; Msm): 4 fold; MIC [1, 3]: > 2240 µM; Cytotoxicity (in words) (Vero E6 cells): strong cytotoxicity at low micromolar concentrations
C[C@H]1c2cccc(O)c2C(=O)C2=C(O)[C@]3(O)C(=O)C(C(N)=O)=C(O)[C@@H](N(C)C)[C@@H]3[C@@H](O)[C@@H]21 [DOX, doxycycline hyclate]	0.063	2.25 µM	2.25 µM	0.063	2.25 µM	0.063	2.25 µM	0.031	1.12 µM	36 µM											FIC (anti-TB drug) ([1]; Msm, in combination with LYO): 0.063
COc1ccc2cc3[n+](cc2c1OC)CCc1cc2c(cc1-3)OCO2 [BER, Berberine chloride]										110 µM	10 fold	16 fold	27.62 µM	53.99 µM	0.125	53.99 µM	0.23	2	0.31		MIC [1, 3]: 221 µM; CC50 at 48 h [2]: 362 µM
CC(C)/N=c1\cc2n(-c3ccc(Cl)cc3)c3ccccc3nc-2cc1Nc1ccc(Cl)cc1 [CFZ, clofazimine]	1	0.08 µM	0.08 µM	1	0.08 µM	0.12	0.01 µM	0.25	0.02 µM	0.08 µM											FIC (anti-TB drug) ([1]; Msm, in combination with LYO): 1
COc1cc(C2c3c(cc(OC)c(O)c3OC)CC(CO)C2CO)cc(OC)c1O (centres unmarked) [LYO, lyoniresinol]										200 µM	8 fold	16 fold	25 µM	200 µM	0.125	25 µM	0.18	2	0.19	1	FIC (EI) ([1]; Msm, in combination with DOX): 0.125; CC50 at 48 h [2, 7]: 318 µM
COc1cc([C@H]2c3c(cc(OC)c(O)c3OC)C[C@@H](CO)[C@@H]2CO[C@@H]2O[C@H](CO)[C@@H](O)[C@H](O)[C@H]2O)cc(OC)c1O [LYO-3, (+)-lyoniresinol-3-Alpha-O-Beta-D-glucopyranoside]										100 µM	20 fold	16 fold	24.99 µM	99.99 µM	0.25	25 µM	0.3	2	0.21	1	FIC (EI) ([1]; Msm, in combination with DOX): 0.25; CC50 at 48 h [2, 7]: 604 µM; viability at 48 h ([2]; Vero E6 cells, even at higher concentrations, read-out: Cell viability): > 50%
O=C(/C=C/C=C/c1ccc2c(c1)OCO2)N1CCCCC1 [PIP, piperine]										120 µM		16 fold	119.99 µM	29.99 µM	1	29.99 µM	2	0.37		0.25	MIC 99 fold reduction of anti-TB drug CFZ ([1]; Msm): 8 fold; FIC (EI) ([1]; Msm, in combination with DOX): 0.25; CC50 at 48 h [2, 7]: 92.5 µM
